Experimental data as given in patent US20220241176A1, “METHOD FOR LOADING OF MICROORGANISMS ON MULTIPHASE BIOMATERIALS” (priority 2019, published 2022).

Legend:
[1] = test system: S. aureus; test: Agar well diffusion test against S. aureus (without BNC); format: cell-based, Staphylococcus aureus
Method: For the agar diffusion test the OD600 of B. megaterium and B. subtilis was adjusted to 0.1 McFarland using sterilized saline NaCl 0.9%. The OD600 of S. aureus was adjusted to 0.5 McFarland using sterilized saline NaCl 0.9%. 20 μl of S. aureus was spread on the surface of Mueller-Hinton agar plate by a sterilized glass spreader. The wells are […] on the agar plate using the back side of a 1 ml pipette tip. A small volume of Mueller-Hinton agar was melted in boiling water bath, then 100 μl of it was used to close the bottom of each created well. After solidification of the agar in the bottom of the wells, the wells were filled with 100 μl of: Negative control, sterilized saline NaCl 0.9%, Positive control, gentamicin 300 μg/ml, B. megaterium or B. subtilis-free supernatant, B. megaterium or B. subtilis suspension.

[2] = test system: S. aureus; test: Agar diffusion test of loaded BNC fleeces against S. aureus; format: cell-based, Staphylococcus aureus
Method: The evaluation of the antibacterial activity of B. subtilis and B. megaterium loaded—BNC against gram-positive S. aureus was determined by an agar diffusion test. Therefore, the bacterial suspensions of B. subtilis and S. aureus were prepared in TSB broth medium as described before. […] 3 BNC fleeces were loaded using B. subtilis suspension in TSB medium, and 3 BNC fleeces were loaded using B. subtilis suspension in saline. Further 3 BNC fleeces were loaded using the B. subtilis free-supernatant, 3 BNC fleeces were loaded with gentamycin as positive control, and 3 BNC fleeces with isotonic saline as negative control. The OD600 of S. aureus was adjusted to 0.5 McFarland using sterilized saline NaCl 0.9% and the optical density spectrophotometer (Biophotometer) was determined. 20 μl of S. aureus was spread on the surface of Mueller-Hinton agar plate by a sterilized glass spreader. The last control and loaded BNC fleeces were added onto surface of the Mueller Hinton agar: 1. Negative control: saline-loaded BNC 2. Positive control: gentamicin-loaded BNC 3. B. subtilis-loaded BNC in TSB medium 4. B. subtilis-loaded BNC in saline 5. B. subtilis-free supernatant-loaded BNC.

Substance: gentamicin [Gentamycin]
- inhibition zone (in words) ([1]; agar well diffusion, 100 μl per well, 37° C., 24 h): inhibition zone
- inhibition effect on S. aureus, Without BNC ([1]; diffusion test): + (by detection of inhibition zone > 2 mm)
- inhibition effect on S. aureus, on BNC - injection technique [2]: + (by detection of inhibition zone > 2 mm)
- inhibition effect on S. aureus, on BNC - spray technique [2]: + (by detection of inhibition zone > 2 mm)
- inhibition effect on S. aureus, on BNC - vortex technique [2]: + (by detection of inhibition zone > 2 mm)
